{"source": "PubChem BioAssay AID2060599", "about": "(Molecular Pharmacology Branch, DTP, NCI, 2025);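 further: spheroids exposed to the agents for seven days before readout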", "test_system": "817829-284-R-J1-PDC complex spheroids, viability", "experiment": "Anticancer human tumor 817829-284-R-J1-PDC patient-derived colon adenocarcinoma cell line growth inhibition [CLK]", "settings": "for IC50: curve of first compound; for viability, T/C: stronger effect = lower value", "summary_of_the_method": "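Multi-cell-type spheroids combined patient-derived tumor cells with HUVEC endothelial cells and human mesenchymal stem cells. Paired agents were dosed in half-log steps down from about clinical Cmax, or from 10 microM where Cmax was unknown.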", "data": [{"smiles": "CC(C)CC(NC(=O)C(Cc1ccccc1)NC(=O)c1cnccn1)B(O)O", "note": "(configuration not stated) + CN1CCN(c2cc(C(=O)Nc3cc4cc(-c5cnn(C)c5)ccc4cn3)ccn2)CC1", "values": [{"measurement": "IC50", "setting": "second compound 0.0316 µM", "value": 1.09, "unit": "nM"}, {"measurement": "IC50", "setting": "second compound 0.1 µM", "value": "< 0.949", "unit": "nM"}, {"measurement": "IC50", "setting": "second compound 0.316 µM", "value": "< 0.949", "unit": "nM"}, {"measurement": "IC50", "setting": "second compound 1 µM", "value": "< 0.949", "unit": "nM"}, {"measurement": "IC50", "setting": "second compound 3.16 µM", "value": "< 0.949", "unit": "nM"}, {"measurement": "IC50", "setting": "second compound 10 µM", "value": "< 0.949", "unit": "nM"}, {"measurement": "viability, T/C", "setting": "second compound 0.0316 µM, first compound 0.000949 µM", "value": 56.9, "unit": "%"}, {"measurement": "viability, T/C", "setting": "second compound 0.0316 µM, first compound 0.003 µM", "value": 0.32, "unit": "%"}, {"measurement": "viability, T/C", "setting": "second compound 0.0316 µM, first compound 0.00949 µM", "value": 0.15, "unit": "%"}, {"measurement": "viability, T/C", "setting": "second compound 0.0316 µM, first compound 0.03 µM", "value": 0.1, "unit": "%"}, {"measurement": "viability, T/C", "setting": "second compound 0.0316 µM, first compound 0.0949 µM", "value": 0.08, "unit": "%"}, {"measurement": "viability, T/C", "setting": "second compound 0.0316 µM, first compound 0.3 µM", "value": 0.06, "unit": "%"}, {"measurement": "viability, T/C", "setting": "second compound 0.1 µM, first compound 0.000949 µM", "value": 8.37, "unit": "%"}, {"measurement": "viability, T/C", "setting": "second compound 0.1 µM, first compound 0.003 µM", "value": 0.1, "unit": "%"}, {"measurement": "viability, T/C", "setting": "second compound 0.1 µM, first compound 0.00949 µM", "value": 0.11, "unit": "%"}, {"measurement": "viability, T/C", "setting": "second compound 0.1 µM, first compound 0.03 µM", "value": 0.08, "unit": "%"}, {"measurement": "viability, T/C", "setting": "second compound 0.1 µM, first compound 0.0949 µM", "value": 0.06, "unit": "%"}, {"measurement": "viability, T/C", "setting": "second compound 0.1 µM, first compound 0.3 µM", "value": 0.06, "unit": "%"}, {"measurement": "viability, T/C", "setting": "second compound 0.316 µM, first compound 0.000949 µM", "value": 0.43, "unit": "%"}, {"measurement": "viability, T/C", "setting": "second compound 0.316 µM, first compound 0.003 µM", "value": 0.07, "unit": "%"}, {"measurement": "viability, T/C", "setting": "second compound 0.316 µM, first compound 0.00949 µM", "value": 0.09, "unit": "%"}, {"measurement": "viability, T/C", "setting": "second compound 0.316 µM, first compound 0.03 µM", "value": 0.04, "unit": "%"}, {"measurement": "viability, T/C", "setting": "second compound 0.316 µM, first compound 0.0949 µM", "value": 0.05, "unit": "%"}, {"measurement": "viability, T/C", "setting": "second compound 0.316 µM, first compound 0.3 µM", "value": 0.05, "unit": "%"}, {"measurement": "viability, T/C", "setting": "second compound 1 µM, first compound 0.000949 µM", "value": 0.08, "unit": "%"}, {"measurement": "viability, T/C", "setting": "second compound 1 µM, first compound 0.003 µM", "value": 0.06, "unit": "%"}, {"measurement": "viability, T/C", "setting": "second compound 1 µM, first compound 0.00949 µM", "value": 0.05, "unit": "%"}, {"measurement": "viability, T/C", "setting": "second compound 1 µM, first compound 0.03 µM", "value": 0.04, "unit": "%"}, {"measurement": "viability, T/C", "setting": "second compound 1 µM, first compound 0.0949 µM", "value": 0.05, "unit": "%"}, {"measurement": "viability, T/C", "setting": "second compound 1 µM, first compound 0.3 µM", "value": 0.05, "unit": "%"}, {"measurement": "viability, T/C", "setting": "second compound 3.16 µM, first compound 0.000949 µM", "value": 0.07, "unit": "%"}, {"measurement": "viability, T/C", "setting": "second compound 3.16 µM, first compound 0.003 µM", "value": 0.06, "unit": "%"}, {"measurement": "viability, T/C", "setting": "second compound 3.16 µM, first compound 0.00949 µM", "value": 0.06, "unit": "%"}, {"measurement": "viability, T/C", "setting": "second compound 3.16 µM, first compound 0.03 µM", "value": 0.04, "unit": "%"}, {"measurement": "viability, T/C", "setting": "second compound 3.16 µM, first compound 0.0949 µM", "value": 0.07, "unit": "%"}, {"measurement": "viability, T/C", "setting": "second compound 3.16 µM, first compound 0.3 µM", "value": 0.07, "unit": "%"}, {"measurement": "viability, T/C", "setting": "second compound 10 µM, first compound 0.000949 µM", "value": 0.03, "unit": "%"}, {"measurement": "viability, T/C", "setting": "second compound 10 µM, first compound 0.003 µM", "value": 0.06, "unit": "%"}, {"measurement": "viability, T/C", "setting": "second compound 10 µM, first compound 0.00949 µM", "value": 0.09, "unit": "%"}, {"measurement": "viability, T/C", "setting": "second compound 10 µM, first compound 0.03 µM", "value": 0.09, "unit": "%"}, {"measurement": "viability, T/C", "setting": "second compound 10 µM, first compound 0.0949 µM", "value": 0.15, "unit": "%"}, {"measurement": "viability, T/C", "setting": "second compound 10 µM, first compound 0.3 µM", "value": 0.11, "unit": "%"}]}]}
